Laboratory results from US20060211081A1, “Sec14 as an antifungal target” (priority 2002, published 2006).

Test system: C. albicans conditional mutants (SEC14 gene under tetracycline repressible promoter)
Experiment: Murine model of systemic infection with C. albicans conditional mutants, kidney burdens
Assay type: in vivo, BALB/c mice
Details: +DOX group (2 mg/ml in 5% sucrose drinking water), at the start of the study and at day 28; 1×10^6 CFU/mouse i.v.
Protocol: To further validate the essential nature of the SEC14 gene, the conditional mutants of C. albicans strains (as described in Example 4, section 4.1), wherein the SEC14 gene is under the control of a tetracycline repressible promoter, may be tested to determine whether they are attenuated in an immuno-competent murine model of infection (Ghannoum, et al, 1995) as follows:
Initially the organisms were grown in the absence of DOX, since under these conditions they would express the SEC14 gene. These organisms were then used to inoculate two groups of 12 of mice. One group wss treated with DOX, in which expression of the SEC14 gene was repressed, and the second group of mice was treated with water (control) wherein the gene continued to be expressed. The mice used were single sex BALB/c mice, Harlan, 4 weeks old and weighing between 19-22 g.
Infective doses of C. albicans were injected into the tail vein. The inocula were from saline-washed fresh stationary phase cultures grown in NGY medium [0.1% neopeptone, 0.4% glucose, 0.1% yeast extract] for 18-24 h at 30° C. […]
Animals were fed food and water ad libitum throughout the course of experiment. […] Differences between the effects of C. albicans with the SEC14 gene active (−DOX) or repressed (+DOX) in vivo were monitored by mouse survival, kidney burdens of viable fungi, and changes in body weight relative to baseline. […]

Question: How did the “Kidney counts (colony forming unit counts per gram of kidney tissue)” value turn out when `C[C@H]1c2cccc(O)c2C(=O)C2=C(O)[C@]3(O)C(=O)C(C(N)=O)=C(O)[C@@H](N(C)C)[C@@H]3[C@@H](O)[C@@H]21` [doxycycline] was run?
Answer: < 200 cfu/g
